{
  "source": "patent US20120088661A1",
  "about": "“FUNGICIDAL MIXTURES” (BASF SE, priority 2009, published 2012)",
  "key": {"Botrytis cinerea [1]": {"tested_on": "Botrytis cinerea", "assay": "Use Example M2: activity against the gray mold pathogen Botrytis cinerea in the microtiter test (Botrci)", "type": "cell-based"}, "Phytophthora infestans": {"tested_on": "Phytophthora infestans", "assay": "microbe, parasite or virus in culture", "type": "cell-based"}, "Septoria glycines": {"tested_on": "Septoria glycines", "assay": "Use Example M8: activity against Septoria glycines in the microtiter test (Septgl)", "type": "cell-based"}, "Colleotrichum truncatum": {"tested_on": "Colleotrichum truncatum", "assay": "Use Example M9: activity against Colleotrichum truncatum in the microtiter test (Colltr)", "type": "cell-based"}, "Botrytis cinerea [2]": {"tested_on": "Botrytis cinerea", "assay": "Use Example G2: greenhouse, activity against grey mold on bell pepper leaves caused by Botrytis cinerea, 1 day protective application (Botrci P1)", "type": "in vivo, Botrytis cinerea on bell pepper seedlings", "protocol": "(§1) The active compounds were prepared separately or jointly as a stock solution with 25 mg of active compound which was made up to 10 ml using a mixture of acetone and/or DMSO and the emulsifier Wettol EM 31 (wetting agent having emulsifying and dispersing action based on ethoxylated alkylphenols) in a volume ratio of solvent:emulsifier of 99:1. The mixture was then made up with water to 100 ml. This stock solution was diluted with the solvents/emulsifier/water mixture described to give the active compound concentrations stated below. Alternatively, the active compounds were used as commercial finished formulation and diluted with water to the stated active compound concentration. The active compound orysastrobin was used as a commercially available formulation, and diluted with water with reference to the active compound.\n(§2) The visually determined values for the percentage of infected leaf area were initially converted into a mean value and then converted into efficacies in % of the untreated control. An efficacy of 0 means the same degree of infection as in the untreated control, an efficacy of 100 means 0% infection. The expected efficacies for the active compound combinations were determined using Colby's formula (Colby, S. R. “Calculating synergistic and antagonistic responses of herbicide combinations”, Weeds, 15, pp. 20-22, 1967) and compared to the observed efficacies.\nBell pepper seedlings were, after 2-3 leaves were well developed, sprayed to run off point with an aqueous suspension having the active compound concentrations stated below. The next day, the treated plants were inoculated with a spore suspension of Botrytis cinerea in a 2% biomalt solution. The test plants were then placed in a dark climatized chamber at 22 to 24° C. and high atmospheric humidity. After 5 days, the extent of the fungal infection on the leaves could be determined visually in %."}, "Septoria tritici": {"tested_on": "Septoria tritici", "assay": "Use Example G5: greenhouse, protective activity against Septoria leaf blotch of wheat caused by Septoria tritici (Septtr P1)", "type": "in vivo, Septoria tritici on wheat seedlings", "conditions": "4 ppm", "protocol": "as §1, §2\nLeaves of potted wheat seedlings were sprayed to run off point with an aqueous suspension having the active compound concentration stated below. 24 hours after the spray coating had dried on, they were inoculated with an aqueous spore suspension of Septoria tritici. The test plants were then placed in a greenhouse at temperatures between 18 and 22° C. and a relative atmospheric humidity close to 100% for four days and then at temperatures between 18 and 22° C. and an atmospheric humidity of about 70%. After 21 days, the extent of the development of the disease was determined visually in % infection of the total leaf area."}, "[3]": {"conditions": "Septoria glycines, 0.25 ppm, read-out: Observed effect"}},
  "note": "Like-named read-outs stand apart in the source and are kept apart here.",
  "data": [
    {"molecule": "1-[trans-2-(2,4-difluorophenyl)-3-(2-fluorophenyl)oxiranylmethyl]-5-methylsulfanyl-1H-[1,2,4]triazole [Example I-6]", "values": [
      {"measurement": "Observed effect", "setting": "Botrytis cinerea [1]; 4 ppm", "result": 9, "unit": "%"}
    ]},
    {"molecule": "2-[trans-2-(3,4-difluorophenyl)-3-(2-trifluoromethylphenyl)oxiranylmethyl]-2,4-dihydro-[1,2,4]triazole-3-thione [Example I-4]", "values": [
      {"measurement": "Observed effect", "setting": "Phytophthora infestans; 63 ppm", "result": 31, "unit": "%"},
      {"measurement": "Observed effect", "setting": "Septoria glycines; 16 ppm", "result": 5, "unit": "%"},
      {"measurement": "Observed effect", "setting": "Septoria glycines; 63 ppm", "result": 23, "unit": "%"},
      {"measurement": "Observed effect", "setting": "Colleotrichum truncatum; 63 ppm", "result": 26, "unit": "%"}
    ]},
    {"molecule": "2-[trans-3-(2-chlorophenyl)-2-(2,4-difluorophenyl)oxiranylmethyl]-2,4-dihydro-[1,2,4]triazole-3-thione [Example I-1]", "values": [
      {"measurement": "Observed effect", "setting": "Phytophthora infestans; 1 ppm", "result": 3, "unit": "%"},
      {"measurement": "Observed effect", "setting": "Phytophthora infestans; 16 ppm", "result": 14, "unit": "%"},
      {"measurement": "Observed effect", "setting": "Phytophthora infestans; 63 ppm", "result": 53, "unit": "%"},
      {"measurement": "Observed effect", "setting": "Septoria glycines; 16 ppm", "result": 30, "unit": "%"},
      {"measurement": "Observed effect", "setting": "Septoria glycines; 63 ppm", "result": 61, "unit": "%"},
      {"measurement": "Observed effect", "setting": "Colleotrichum truncatum; 1 ppm", "result": 5, "unit": "%"},
      {"measurement": "Observed effect", "setting": "Colleotrichum truncatum; 16 ppm", "result": 6, "unit": "%"},
      {"measurement": "Observed effect", "setting": "Colleotrichum truncatum; 63 ppm", "result": 30, "unit": "%"},
      {"measurement": "Observed effect", "setting": "Botrytis cinerea [2]; 4 ppm", "result": 2, "unit": "%"},
      {"measurement": "Observed effect", "setting": "Septoria tritici", "result": 41, "unit": "%"}
    ]},
    {"molecule": "2-[trans-3-(2-chlorophenyl)-2-(3,4-difluorophenyl)oxiranylmethyl]-2H-[1,2,4]triazole-3-thiol [Example I-3]", "values": [
      {"measurement": "Observed effect", "setting": "Phytophthora infestans; 63 ppm", "result": 31, "unit": "%"},
      {"measurement": "Observed effect", "setting": "Botrytis cinerea [1]; 4 ppm", "result": 8, "unit": "%"},
      {"measurement": "Observed effect", "setting": "Botrytis cinerea [1]; 63 ppm", "result": 25, "unit": "%"}
    ]},
    {"molecule": "Fc1ccc([C@]2(Cn3cncn3)O[C@H]2c2ccccc2Cl)cc1", "note": "(racemic) [II-1, epoxiconazole]", "values": [
      {"measurement": "inhibition of growth at […]", "setting": "Septoria glycines; Septoria glycines, 0.063 ppm, read-out: Observed effect", "result": 2, "unit": "%"}
    ]},
    {"molecule": "Cc1ccccc1[C@@H]1O[C@]1(Cn1nc[nH]c1=S)c1ccc(F)c(F)c1", "note": "(relative stereo) [Example I-2, 2-[trans-2-(3,4-difluorophenyl)-3-o-tolyloxiranylmethyl]-2,4-dihydro-[1,2,4]triazole-3-thione]", "values": [
      {"measurement": "Observed effect", "setting": "Septoria glycines; 63 ppm", "result": 40, "unit": "%"},
      {"measurement": "Observed effect", "setting": "Colleotrichum truncatum; 63 ppm", "result": 38, "unit": "%"}
    ]},
    {"molecule": "CSc1ncnn1C[C@]1(c2ccc(F)c(F)c2)O[C@H]1c1ccccc1Cl", "note": "(relative stereo) [Example I-5, 1-[trans-3-(2-chlorophenyl)-2-(3,4-difluorophenyl)oxiranylmethyl]-5-methylsulfanyl-1H-[1,2,4]triazole]", "values": [
      {"measurement": "Observed effect", "setting": "Botrytis cinerea [1]; 16 ppm", "result": 9, "unit": "%"}
    ]},
    {"molecule": "CSc1ncnn1C[C@]1(c2ccc(F)cc2F)O[C@H]1c1ccccc1Cl", "note": "(relative stereo) [Example I-7, 1-[trans-3-(2-chlorophenyl)-2-(2,4-difluorophenyl)oxiranylmethyl]-5-methylsulfanyl-1H-[1,2,4]triazole]", "values": [
      {"measurement": "Observed effect", "setting": "Botrytis cinerea [1]; 16 ppm", "result": 25, "unit": "%"}
    ]},
    {"molecule": "N#CSc1ncnn1C[C@]1(c2ccc(F)cc2F)O[C@H]1c1ccccc1Cl", "note": "(relative stereo) [Example I-8, 1-[trans-3-(2-chlorophenyl)-2-(2,4-difluorophenyl)oxiranylmethyl]-5-thiocyanato-1H-[1,2,4]triazole]", "values": [
      {"measurement": "Observed effect", "setting": "Phytophthora infestans; 4 ppm", "result": 7, "unit": "%"},
      {"measurement": "Observed effect", "setting": "Botrytis cinerea [1]; 16 ppm", "result": 19, "unit": "%"}
    ]},
    {"molecule": "CC1(C)CCC(Cc2ccc(Cl)cc2)C1(O)Cn1cncn1", "note": "(centres unmarked) [II-2, metconazole]", "values": [
      {"measurement": "inhibition of growth at […]", "setting": "Septoria glycines; [3]", "result": 19, "unit": "%"}
    ]},
    {"molecule": "CC(C)(C)C(O)(CCc1ccc(Cl)cc1)Cn1cncn1", "note": "(centres unmarked) [II-3, tebuconazole]", "values": [
      {"measurement": "Observed effect", "setting": "Botrytis cinerea [2]; 1 ppm", "result": 0, "unit": "%"}
    ]},
    {"molecule": "CO/N=C(/C(=O)OC)c1ccccc1COc1ccccc1C", "note": "[II-8, kresoxim-methyl]", "values": [
      {"measurement": "Observed effect", "setting": "Colleotrichum truncatum; 1 ppm", "result": 27, "unit": "%"},
      {"measurement": "Observed effect", "setting": "Colleotrichum truncatum; 4 ppm", "result": 37, "unit": "%"}
    ]},
    {"molecule": "COC(=O)N(OC)c1ccccc1COc1ccn(-c2ccc(Cl)cc2)n1", "note": "[II-9, pyraclostrobin]", "values": [
      {"measurement": "inhibition of growth at 0.016 ppm", "setting": "Phytophthora infestans; Phytophthora infestans, read-out: Observed effect, 0.016 ppm", "result": 13, "unit": "%"},
      {"measurement": "Observed effect", "setting": "Botrytis cinerea [1]; 0.016 ppm", "result": 8, "unit": "%"},
      {"measurement": "inhibition of growth at 0.016 ppm", "setting": "Septoria glycines; Septoria glycines, 0.016 ppm, read-out: Observed effect", "result": 69, "unit": "%"},
      {"measurement": "Observed effect", "setting": "Colleotrichum truncatum; 0.016 ppm", "result": 7, "unit": "%"}
    ]},
    {"molecule": "CNC(=O)/C(=N/OC)c1ccccc1CO/N=C(C)/C(=N/OC)C(/C)=N/OC", "note": "[II-10, orysastrobin]", "values": [
      {"measurement": "Observed effect", "setting": "Phytophthora infestans; 1 ppm", "result": 22, "unit": "%"},
      {"measurement": "Observed effect", "setting": "Botrytis cinerea [1]; 1 ppm", "result": 13, "unit": "%"},
      {"measurement": "Observed effect", "setting": "Colleotrichum truncatum; 4 ppm", "result": 29, "unit": "%"}
    ]},
    {"molecule": "COCC(=O)N(c1c(C)cccc1C)C(C)C(=O)OC", "note": "(centres unmarked) [II-14, metalaxyl]", "values": [
      {"measurement": "inhibition of growth at 4 ppm", "setting": "Septoria glycines; Septoria glycines, 4 ppm, read-out: Observed effect", "result": 18, "unit": "%"}
    ]},
    {"molecule": "CC(Cc1ccc(C(C)(C)C)cc1)CN1C[C@@H](C)O[C@@H](C)C1", "note": "(some centres unmarked) [II-15, fenpropimorph]", "values": [
      {"measurement": "inhibition of growth at 1 ppm", "setting": "Phytophthora infestans; Phytophthora infestans, read-out: Observed effect, 1 ppm", "result": 26, "unit": "%"},
      {"measurement": "inhibition of growth at 0.004 ppm", "setting": "Septoria glycines; Septoria glycines, 0.004 ppm, read-out: Observed effect", "result": 1, "unit": "%"},
      {"measurement": "inhibition of growth at […]", "setting": "Septoria glycines; [3]", "result": 71, "unit": "%"}
    ]},
    {"molecule": "CC(C)NC(=O)N1CC(=O)N(c2cc(Cl)cc(Cl)c2)C1=O", "note": "[II-17, iprodione]", "values": [
      {"measurement": "inhibition of growth at 1 ppm", "setting": "Septoria glycines; Septoria glycines, 1 ppm, read-out: Observed effect", "result": 0, "unit": "%"}
    ]}
  ]
}
